Measurements from patent US20090156646A1, “PYRIDYLPHENOL COMPOUND AND USE THEREOF” (TAKEDA PHARMACEUTICAL COMPANY LIMITED, priority 2005, published 2009).

Assays:
[1] = molecular target: T1, human metastin receptor hOT7T175 (Homo sapiens, UniProt Q969F8, L364H); experiment: binding inhibiting activity: 125I-metastin (40-54) binding to cell membrane fraction of h175 KB34 cells; conditions: room temperature 60 minutes, read-out: binding inhibiting activity, represented by the IC50 value
T1 construct: encoding the entire length of human metastin receptor hOT7T175; expressed in transfected cells; host or cells: CHO/dhFr- cells (ATCC #CRL-9096) stably transfected with pAKKO-hOT7T175; clone h175-16 was used as whole cells for FLIPR
Procedure, shortened: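 The assay buffer (pH 7.4 Tris with magnesium acetate, EGTA and a protease-inhibitor cocktail) was used either plain or supplemented with 1 mg/ml BSA. The radioligand was 125I-labelled human metastin (40-54). The receptor source was a 250-fold diluted membrane fraction of the stable CHO/dhfr− line h175 KB34.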

T1 sequence (Q969F8 whole entry L364H): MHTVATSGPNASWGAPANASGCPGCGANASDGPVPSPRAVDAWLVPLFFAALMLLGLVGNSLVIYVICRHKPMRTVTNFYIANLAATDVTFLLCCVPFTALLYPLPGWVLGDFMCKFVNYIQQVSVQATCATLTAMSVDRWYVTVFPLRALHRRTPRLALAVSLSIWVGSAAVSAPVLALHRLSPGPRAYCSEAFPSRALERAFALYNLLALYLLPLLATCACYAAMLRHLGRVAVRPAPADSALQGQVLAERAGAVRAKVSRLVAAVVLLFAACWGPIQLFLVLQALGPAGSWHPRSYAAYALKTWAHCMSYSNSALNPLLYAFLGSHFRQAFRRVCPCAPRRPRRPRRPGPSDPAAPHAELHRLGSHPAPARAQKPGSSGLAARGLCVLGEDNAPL

Compound | IC50 [1] [µM] | melting point
Cl.N#Cc1c(-c2cccc(NC(=O)[C@H]3CCC[C@H]3N)c2)cc(-c2ccc(F)cc2O)nc1NC(=O)c1ccco1 (racemic) [Example 278, N-{4-[3-({[(1SR,2RS)-2-aminocyclopentyl]carbonyl}amino)phenyl]-3-cyano-6-(4-fluoro-2-hydroxyphenyl)pyridin-2-yl}-2-furamide hydrochloride] | ≤ 10 | 224 to 226 °C
CC(C)NC(C)CC(=O)Nc1cccc(-c2cc(-c3ccc(F)cc3O)nc(NC(=O)c3ccco3)c2C#N)c1.Cl (centres unmarked) [Example 321, N-[3-cyano-6-(4-fluoro-2-hydroxyphenyl)-4-(3-{[3-(isopropylamino)butanoyl]amino}phenyl)pyridin-2-yl]-2-furamide hydrochloride] | ≤ 10 | 197 to 199 °C
N#Cc1c(-c2cccc(CN)c2)cc(-c2ccccc2O)nc1NC(=O)c1cccs1 [Example 1, N-[4-[3-(aminomethyl)phenyl]-3-cyano-6-(2-hydroxyphenyl)pyridin-2-yl]thiophene-2-carboxamide] | ≤ 10 | 203 to 205 °C
Cl.N#Cc1c(-c2cccc(NC(=O)[C@H]3CCCC[C@H]3N)c2)cc(-c2ccc(F)cc2O)nc1NC(=O)c1ccco1 [Example 283, N-{4-[3-({[(1S,2R)-2-aminocyclohexyl]carbonyl}amino)phenyl]-3-cyano-6-(4-fluoro-2-hydroxyphenyl)pyridin-2-yl}-2-furamide hydrochloride] | ≤ 10 | 237 to 239 °C
CC(=O)NCCNc1cccc(-c2cc(-c3ccc(F)cc3O)nc(NC(=O)c3ccco3)c2C#N)c1 [Example 307, N-[4-(3-{[2-(acetylamino)ethyl]amino}phenyl)-3-cyano-6-(4-fluoro-2-hydroxyphenyl)pyridin-2-yl]-2-furamide] | ≤ 10 | 158 to 160 °C
N#Cc1c(-c2cccc(CNC(=N)N)c2)cc(-c2ccccc2O)nc1NC(=O)c1cccs1.O=C(O)C(F)(F)F [Example 45, N-{4-[3-({[amino(imino)methyl]amino}methyl)phenyl]-3-cyano-6-(2-hydroxyphenyl)pyridin-2-yl}thiophene-2-carboxamide trifluoroacetate] | ≤ 10 | 144 to 151 °C
Cl.N#Cc1c(-c2cccc(N3CCCNCC3)c2)cc(-c2ccc(F)cc2O)nc1NC(=O)c1ccco1 [Example 326, N-[3-cyano-4-[3-(1,4-diazepan-1-yl)phenyl]-6-(4-fluoro-2-hydroxyphenyl)pyridin-2-yl]-2-furamide hydrochloride] | ≤ 10 | 254 to 259 °C
Cl.N#Cc1c(-c2cccc(NC(=O)CCN)c2)cc(-c2ccc(Br)cc2O)nc1NC(=O)c1cccs1 [Example 61, N-{4-[3-(β-alanylamino)phenyl]-6-(4-bromo-2-hydroxyphenyl)-3-cyanopyridin-2-yl}thiophene-2-carboxamide hydrochloride] | ≤ 10 | 203 to 211 °C
Cl.N#Cc1c(-c2cccc(C(=O)NCCN)c2)cc(-c2ccc(Cl)cc2O)nc1NC(=O)c1nccs1 [Example 249, N-[4-(3-{[(2-aminoethyl)amino]carbonyl}phenyl)-6-(4-chloro-2-hydroxyphenyl)-3-cyanopyridin-2-yl]-1,3-thiazole-2-carboxamide hydrochloride] | ≤ 10 | 242 to 244 °C
Cl.N#Cc1c(-c2cccc(NC(=O)[C@H](N)Cc3ccccc3)c2)cc(-c2ccc(F)cc2O)nc1NC(=O)c1ccco1 [Example 263, N-{3-[3-cyano-6-(4-fluoro-2-hydroxyphenyl)-2-(2-furoylamino)pyridin-4-yl]phenyl}-D-phenylalaninamide hydrochloride] | ≤ 10 | 186 to 188 °C
CCC(N)CC(=O)Nc1cccc(-c2cc(-c3ccc(F)cc3O)nc(NC(=O)c3ccco3)c2C#N)c1.Cl (centres unmarked) [Example 264, N-[4-{3-[(3-aminopentanoyl)amino]phenyl}-3-cyano-6-(4-fluoro-2-hydroxyphenyl)pyridin-2-yl]-2-furamide hydrochloride] | ≤ 10 | 212 to 214 °C
Cl.N#Cc1c(-c2cccc(C(=O)NCCCn3ccnc3)c2)cc(-c2ccc(Cl)cc2O)nc1NC(=O)c1nccs1 [Example 250, N-{6-(4-chloro-2-hydroxyphenyl)-3-cyano-4-[3-({[3-(1H-imidazol-1-yl)propyl]amino}carbonyl)phenyl]pyridin-2-yl}-1,3-thiazole-2-carboxamide hydrochloride] | ≤ 10 | 208 to 212 °C
Cl.N#Cc1c(-c2cccc(C(=O)NCC3CCCCN3)c2)cc(-c2ccc(Cl)cc2O)nc1NC(=O)c1ccco1 (centres unmarked) [Example 84, N-[6-(4-chloro-2-hydroxyphenyl)-3-cyano-4-(3-{[(piperidin-2-ylmethyl)amino]carbonyl}phenyl)pyridin-2-yl]-2-furamide hydrochloride] | ≤ 10 | 222 to 226 °C
Cl.N#Cc1c(-c2cccc(C(=O)NCCCn3ccnc3)c2)cc(-c2ccc(F)cc2O)nc1NC(=O)c1cccs1 [Example 78, N-{3-cyano-6-(4-fluoro-2-hydroxyphenyl)-4-[3-({[3-(1H-imidazole-1-yl)propyl]amino}carbonyl)phenyl]pyridin-2-yl}thiophene-2-carboxamide hydrochloride] | ≤ 10 | 195 to 196 °C
Cl.N#Cc1c(-c2cccc(NC(=O)CCCn3ccnc3)c2)cc(-c2ccc(Cl)cc2O)nc1NC(=O)c1ccco1 [Example 242, N-[6-(4-chloro-2-hydroxyphenyl)-3-cyano-4-(3-{[4-(1H-imidazole-1-yl)butanoyl]amino}phenyl)pyridin-2-yl]-2-furamide hydrochloride] | ≤ 10 | 166 to 170 °C
CC(N)CC(=O)Nc1cccc(-c2cc(-c3ccc(F)cc3O)nc(NC(=O)c3ccco3)c2C#N)c1.Cl (centres unmarked) [Example 337, N-[4-{3-[(3-aminobutanoyl)amino]phenyl}-3-cyano-6-(4-fluoro-2-hydroxyphenyl)pyridin-2-yl]-2-furamide hydrochloride] | ≤ 10 | 213 to 215 °C
Cl.N#Cc1c(-c2cccc(NC(=O)[C@H]3CCCN3)c2)cc(-c2ccc(F)cc2O)nc1NC(=O)c1ccno1 [Example 293, N-(3-{3-cyano-6-(4-fluoro-2-hydroxyphenyl)-2-[(isoxazol-5-ylcarbonyl)amino]pyridin-4-yl}phenyl)-D-prolinamide hydrochloride] | ≤ 10 | ≥ 250 °C (dec.)
CCN(CC)CCNC(=O)c1cccc(-c2cc(-c3ccc(F)cc3O)nc(NC(=O)c3ccco3)c2C#N)c1.Cl [Example 310, N-[3-cyano-4-[3-({[2-(diethylamino)ethyl]amino}carbonyl)phenyl]-6-(4-fluoro-2-hydroxyphenyl)pyridin-2-yl]-2-furamide hydrochloride] | ≤ 10 | 200 to 204 °C
Cl.N#Cc1c(-c2cccc(C(=O)N[C@@H]3CCCC[C@H]3N)c2)cc(-c2ccc(F)cc2O)nc1NC(=O)c1ccco1 (racemic) [Example 289, N-{4-[3-({[(1SR,2SR)-2-aminocyclohexyl]amino}carbonyl)phenyl]-3-cyano-6-(4-fluoro-2-hydroxyphenyl)pyridin-2-yl}-2-furamide hydrochloride] | ≤ 10 | 285 to 288 °C
CC(N)CC(=O)Nc1cccc(-c2cc(-c3ccc(Cl)cc3O)nc(NC(=O)c3ccco3)c2C#N)c1.Cl (centres unmarked) [Example 238, N-[4-{3-[(3-aminobutanoyl)amino]phenyl}-6-(4-chloro-2-hydroxyphenyl)-3-cyanopyridin-2-yl]-2-furamide hydrochloride] | ≤ 10 | 206 to 214 °C
Cl.N#Cc1c(-c2cccc(NC(=O)[C@H]3CCCN3)c2)cc(-c2ccc(Cl)cc2O)nc1NC(=O)c1ccno1 [Example 295, N-(3-{6-(4-chloro-2-hydroxyphenyl)-3-cyano-2-[(isoxazol-5-ylcarbonyl)amino]pyridin-4-yl}phenyl)-D-prolinamide hydrochloride] | ≤ 10 | ≥ 250 °C (dec.)
COc1ccccc1C(=O)Nc1nc(-c2ccc(F)cc2O)cc(-c2cccc(NC(=O)CCN)c2)c1C#N.Cl [Example 247, N-[4-[3-(β-alanylamino)phenyl]-3-cyano-6-(4-fluoro-2-hydroxyphenyl)pyridin-2-yl]-2-methoxybenzamide hydrochloride] | ≤ 10 | 232 to 233 °C
Cl.N#Cc1c(-c2cccc(NC(=O)C3(N)CCC3)c2)cc(-c2ccc(Cl)cc2O)nc1NC(=O)c1ccco1 [Example 65, N-[4-(3-{[(1-aminocyclobutyl)carbonyl]amino}phenyl)-6-(4-chloro-2-hydroxyphenyl)-3-cyanopyridin-2-yl]-2-furamide hydrochloride] | ≤ 10 | 195 to 200 °C
CC(C)(CN)CNC(=O)c1cccc(-c2cc(-c3ccc(F)cc3O)nc(NC(=O)c3ccco3)c2C#N)c1.Cl [Example 77, N-[4-(3-{[(3-amino-2,2-dimethylpropyl)amino]carbonyl}phenyl)-3-cyano-6-(4-fluoro-2-hydroxyphenyl)pyridin-2-yl]-2-furamide hydrochloride] | ≤ 10 | 256 to 257 °C
CN(C)CCNC(=O)c1cccc(-c2cc(-c3ccc(F)cc3O)nc(NC(=O)c3ccco3)c2C#N)c1.Cl [Example 309, N-[3-cyano-4-[3-({[2-(dimethylamino)ethyl]amino}carbonyl)phenyl]-6-(4-fluoro-2-hydroxyphenyl)pyridin-2-yl]-2-furamide hydrochloride] | ≤ 10 | 200 to 204 °C
